Data taken from ChEMBL document CHEMBL1127944, “Synthesis of the potent and selective atypical -adrenergic agonist SR 59062A” (Bioorg Med Chem Lett, 1994).

Experiments:
[1] = target: Adrenergic receptor beta (Homo sapiens, UniProt P08588+P07550+P13945); test: Beta-adrenergic agonistic activity in guinea-pig atrium preincubated with phenoxybenzamine (12 uM) for 30 min; format: functional, tissue-based, Cavia porcellus, Cardiac atrium; conditions: target entry is the homologue from another species
[2] = target: T1, Adrenergic receptor beta (Rattus norvegicus, UniProt P18090+P10608+P26255); test: Beta-adrenergic agonistic activity in rat uterus preincubated with phenoxybenzamine (12 uM) for 30 min; format: functional, tissue-based
[3] = target: T1, Adrenergic receptor beta; test: Beta-adrenergic agonistic activity in rat proximal colon; format: functional
[4] = target: T1, Adrenergic receptor beta; test: Beta-adrenergic agonistic activity in rat proximal colon in presence of phentolamine (10 uM), desmethylimipramine (0.5 uM) and hydrocortisone (30 uM); format: functional, tissue-based

SMILES | EC50 [1] [nM] | IC50 [2] [nM] | IC50 [3] [nM] | IC50 [4] [nM]
CCOC(=O)c1ccc2c(c1)CC(NCC(O)c1cccc(Cl)c1)CC2.Cl (stereo not drawn) | > 30000 | 185 | 90 | 
CCOC(=O)CCc1ccc2c(c1)C[C@H](NC[C@H](O)c1cccc(Cl)c1)CC2.Cl | > 30000 | 480 |  | 0.9
CCOC(=O)CCc1ccc2c(c1)CC(NCC(O)c1cccc(Cl)c1)CC2.Cl (stereo not drawn) | > 30000 | 350 | 21 | 
CCOC(=O)CCc1ccc2c(c1)C[C@@H](NC[C@H](O)c1cccc(Cl)c1)CC2.Cl | > 30000 | 319 |  | 1.09
CCOC(=O)COc1ccc2c(c1)C[C@@H](NC[C@H](O)c1cccc(Cl)c1)CC2.Cl (mixture of isomers) [AMIBEGRON HYDROCHLORIDE] | > 30000 | 1200 | 47 | 
CCOC(=O)COc1ccc2c(c1)C[C@@H](NC[C@H](O)c1cccc(Cl)c1)CC2.Cl [AMIBEGRON HYDROCHLORIDE] | > 30000 | 499 |  | 3.5
